{"source": "ChEMBL document CHEMBL1201862", "about": "“PubChem BioAssay data set” (2004)", "assay_in_all_cases": "inhibition of tumour cell growth, NCI panel, 48 h", "key": {"MDA-MB-435": {"tested_on": "MDA-MB-435"}, "DU-145": {"tested_on": "DU-145"}, "OVCAR-8": {"tested_on": "OVCAR-8"}, "A549": {"tested_on": "A549"}, "OVCAR-5": {"tested_on": "OVCAR-5"}, "HL-60": {"tested_on": "HL-60"}, "K562": {"tested_on": "K562"}, "EKVX": {"tested_on": "EKVX"}, "BT-549": {"tested_on": "BT-549"}, "SF-295": {"tested_on": "SF-295"}, "TK-10": {"tested_on": "TK-10"}, "HCC 2998": {"tested_on": "HCC 2998"}, "DLD-1": {"tested_on": "DLD-1"}, "M14": {"tested_on": "M14"}, "COLO 205": {"tested_on": "COLO 205"}, "RPMI-8226": {"tested_on": "RPMI-8226"}, "HCT-15": {"tested_on": "HCT-15"}, "ACHN": {"tested_on": "ACHN"}, "SK-OV-3": {"tested_on": "SK-OV-3"}, "SW-620": {"tested_on": "SW-620"}, "OVCAR-4": {"tested_on": "OVCAR-4"}, "HOP-18": {"tested_on": "HOP-18"}, "KM12": {"tested_on": "KM12"}, "NCI-H23": {"tested_on": "NCI-H23"}, "A498": {"tested_on": "A498"}, "SNB-19": {"tested_on": "SNB-19"}, "MOLT-4": {"tested_on": "MOLT-4"}, "SNB-75": {"tested_on": "SNB-75"}, "HT-29": {"tested_on": "HT-29"}, "NCI/ADR-RES": {"tested_on": "NCI/ADR-RES"}, "MDA-N": {"tested_on": "MDA-N"}, "786-0": {"tested_on": "786-0"}, "DMS-114": {"tested_on": "DMS-114"}, "LXFL 529": {"tested_on": "LXFL 529"}, "MDA-MB-231": {"tested_on": "MDA-MB-231"}, "NCI-H460": {"tested_on": "NCI-H460"}, "Hs-578T": {"tested_on": "Hs-578T"}, "SK-MEL-28": {"tested_on": "SK-MEL-28"}, "HOP-92": {"tested_on": "HOP-92"}, "SF-268": {"tested_on": "SF-268"}, "UO-31": {"tested_on": "UO-31"}, "CAKI-1": {"tested_on": "CAKI-1"}, "T47D": {"tested_on": "T47D"}, "MCF7": {"tested_on": "MCF7"}, "NCI-H226": {"tested_on": "NCI-H226"}, "SR": {"tested_on": "SR"}, "RXF 631": {"tested_on": "RXF 631"}, "DMS-273": {"tested_on": "DMS-273"}, "NCI-H522": {"tested_on": "NCI-H522"}, "IGROV-1": {"tested_on": "IGROV-1"}, "UACC-257": {"tested_on": "UACC-257"}, "SN12C": {"tested_on": "SN12C"}, "CCRF-CEM": {"tested_on": "CCRF-CEM"}, "UACC-62": {"tested_on": "UACC-62"}, "OVCAR-3": {"tested_on": "OVCAR-3"}, "Malme-3M": {"tested_on": "Malme-3M"}, "LOX IMVI": {"tested_on": "LOX IMVI"}, "PC-3": {"tested_on": "PC-3"}, "SK-MEL-5": {"tested_on": "SK-MEL-5"}}, "note": "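Dose response: 5 concentrations. Exposure: 48 h. Format: 96-well plates. Endpoint: linear interpolation; highest concentration if not reached. Abbreviation: GI50, concentration required for 50% inhibition of growth.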 Activity calls are given as the source filed them. No stated cut-off is given here; in the data, active = GI50 up to about 1.1 µM and inactive = higher.", "data": [{"smiles": "SC1=NC2(CCCCCC2)NN1c1ccccc1", "values": [{"measurement": "GI50", "setting": "MDA-MB-435", "value": "3610 nM (inactive)"}, {"measurement": "GI50", "setting": "DU-145", "value": "70.8 nM (active)"}, {"measurement": "GI50", "setting": "OVCAR-8", "value": "15500 nM (inactive)"}, {"measurement": "GI50", "setting": "A549", "value": "206 nM (active)"}, {"measurement": "GI50", "setting": "OVCAR-5", "value": "1910 nM (inactive)"}, {"measurement": "GI50", "setting": "HL-60", "value": "86.7 nM (active)"}, {"measurement": "GI50", "setting": "K562", "value": "19 nM (active)"}, {"measurement": "GI50", "setting": "EKVX", "value": "36500 nM (inactive)"}, {"measurement": "GI50", "setting": "BT-549", "value": "> 100000 nM (inactive)"}, {"measurement": "GI50", "setting": "SF-295", "value": "47.1 nM (active)"}, {"measurement": "GI50", "setting": "TK-10", "value": "> 28600 nM (inactive)"}, {"measurement": "GI50", "setting": "HCC 2998", "value": "386 nM (active)"}, {"measurement": "GI50", "setting": "DLD-1", "value": "340 nM (active)"}, {"measurement": "GI50", "setting": "M14", "value": "1610 nM (inactive)"}, {"measurement": "GI50", "setting": "COLO 205", "value": "104 nM (active)"}, {"measurement": "GI50", "setting": "RPMI-8226", "value": "769 nM (active)"}, {"measurement": "GI50", "setting": "HCT-15", "value": 168, "unit": "nM"}, {"measurement": "GI50", "setting": "ACHN", "value": "78.5 nM (active)"}, {"measurement": "GI50", "setting": "SK-OV-3", "value": "> 100000 nM (inactive)"}, {"measurement": "GI50", "setting": "SW-620", "value": "1780 nM (inactive)"}, {"measurement": "GI50", "setting": "OVCAR-4", "value": "2160 nM (inactive)"}, {"measurement": "GI50", "setting": "HOP-18", "value": "> 100000 nM (inactive)"}, {"measurement": "GI50", "setting": "KM12", "value": "291 nM (active)"}, {"measurement": "GI50", "setting": "NCI-H23", "value": "9230 nM (inactive)"}, {"measurement": "GI50", "setting": "A498", "value": "50500 nM (inactive)"}, {"measurement": "GI50", "setting": "SNB-19", "value": "> 41000 nM (inactive)"}, {"measurement": "GI50", "setting": "MOLT-4", "value": "891 nM (active)"}, {"measurement": "GI50", "setting": "SNB-75", "value": "> 66800 nM (inactive)"}, {"measurement": "GI50", "setting": "HT-29", "value": "1350 nM (inactive)"}, {"measurement": "GI50", "setting": "NCI/ADR-RES", "value": "> 100000 nM (inactive)"}, {"measurement": "GI50", "setting": "MDA-N", "value": "3090 nM (inactive)"}, {"measurement": "GI50", "setting": "786-0", "value": "> 30600 nM (inactive)"}, {"measurement": "GI50", "setting": "DMS-114", "value": "273 nM (active)"}, {"measurement": "GI50", "setting": "LXFL 529", "value": "40.7 nM (active)"}, {"measurement": "GI50", "setting": "MDA-MB-231", "value": "> 100000 nM (inactive)"}, {"measurement": "GI50", "setting": "NCI-H460", "value": "979 nM (active)"}, {"measurement": "GI50", "setting": "Hs-578T", "value": "> 100000 nM (inactive)"}, {"measurement": "GI50", "setting": "SK-MEL-28", "value": "1110 nM (active)"}, {"measurement": "GI50", "setting": "HOP-92", "value": "> 100000 nM (inactive)"}, {"measurement": "GI50", "setting": "SF-268", "value": "184 nM (active)"}, {"measurement": "GI50", "setting": "UO-31", "value": "168 nM (active)"}, {"measurement": "GI50", "setting": "CAKI-1", "value": "218 nM (active)"}, {"measurement": "GI50", "setting": "T47D", "value": "597 nM (active)"}, {"measurement": "GI50", "setting": "MCF7", "value": "1360 nM (inactive)"}, {"measurement": "GI50", "setting": "NCI-H226", "value": "> 100000 nM (inactive)"}, {"measurement": "GI50", "setting": "SR", "value": "28800 nM (inactive)"}, {"measurement": "GI50", "setting": "RXF 631", "value": "2810 nM (inactive)"}, {"measurement": "GI50", "setting": "DMS-273", "value": "166 nM (active)"}, {"measurement": "GI50", "setting": "NCI-H522", "value": "> 100000 nM (inactive)"}, {"measurement": "GI50", "setting": "IGROV-1", "value": "> 39400 nM (inactive)"}, {"measurement": "GI50", "setting": "UACC-257", "value": "23900 nM (inactive)"}, {"measurement": "GI50", "setting": "SN12C", "value": "> 27300 nM (inactive)"}, {"measurement": "GI50", "setting": "CCRF-CEM", "value": "66.4 nM (active)"}, {"measurement": "GI50", "setting": "UACC-62", "value": "20.8 nM (active)"}, {"measurement": "GI50", "setting": "OVCAR-3", "value": "9910 nM (inactive)"}, {"measurement": "GI50", "setting": "Malme-3M", "value": "16400 nM (inactive)"}, {"measurement": "GI50", "setting": "LOX IMVI", "value": "820 nM (active)"}, {"measurement": "GI50", "setting": "PC-3", "value": "29600 nM (inactive)"}, {"measurement": "GI50", "setting": "SK-MEL-5", "value": "93300 nM (inactive)"}]}]}
